From ChEMBL document CHEMBL5046290, “Design, Synthesis, and Preclinical Profiling of GSK3739936 (BMS-986180), an Allosteric Inhibitor of HIV-1 Integrase with Broad-Spectrum Activity toward 124/125 Polymorphs” (J Med Chem, 2022)

Tests used:
[1] = AUC in Beagle dog at 2 mg/kg, po by LC-MS/MS analysis; assay type: ADME, organism-based, Canis lupus familiaris; design: dose 2 mg/kg; details: in vivo
[2] = Toxicity in rat at 500 mg/kg/day for one week; assay type: organism-based; details: in vivo
Cytochrome P450 2C9 = Cytochrome P450 2C9 (Homo sapiens, UniProt P11712); test: Inhibition of human CYP2C9; assay type: ADME
Sequence of Cytochrome P450 2C9 (P11712 whole entry): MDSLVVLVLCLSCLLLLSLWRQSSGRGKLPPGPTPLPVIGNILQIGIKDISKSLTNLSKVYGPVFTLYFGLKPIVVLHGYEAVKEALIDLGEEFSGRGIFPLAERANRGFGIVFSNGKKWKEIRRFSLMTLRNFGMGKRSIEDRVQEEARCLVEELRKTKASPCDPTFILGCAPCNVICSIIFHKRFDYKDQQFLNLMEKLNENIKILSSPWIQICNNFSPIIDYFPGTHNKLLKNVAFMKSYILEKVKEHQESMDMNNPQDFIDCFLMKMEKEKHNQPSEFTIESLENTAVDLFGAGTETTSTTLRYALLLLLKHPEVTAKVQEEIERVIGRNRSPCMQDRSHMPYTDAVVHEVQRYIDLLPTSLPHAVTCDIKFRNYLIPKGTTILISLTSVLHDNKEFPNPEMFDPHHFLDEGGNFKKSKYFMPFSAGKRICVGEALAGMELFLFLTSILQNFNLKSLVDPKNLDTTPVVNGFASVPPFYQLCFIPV

Cc1nc(C)c([C@H](OC(C)(C)C)C(=O)O)c(N2CCC(C)(C)CC2)c1-c1ccc(OCCc2ccc(F)cc2)cc1
AUC [1]: 18.5 µM·h | Activity [2]: Toxic | IC50 (Cytochrome P450 2C9): ≥ 24.3 µM
